Experimental data published in PMC6857076 (Pharmacology Research & Perspectives, 2019).
Like-named read-outs stand apart in the source and are kept apart here.

Key:
[1] = tested on: EPO cytokine receptor (JAK2/JAK2); assay: Human whole blood spiked with CD34+-derived erythroid progenitor cells, EPO-induced pSTAT5; type: cell-based; settings: for IC50: Erythroid progenitor cell, human whole blood
Experimental: CD34^+ cells were then harvested, washed once with Dulbecco's (D)‐PBS, and suspended at 0.5 x 10^6 cells/mL in human whole blood to be used in the EPO stimulation assay.
Blood was warmed to 37°C prior to use.
Background fluorescence was defined using unstimulated cells and a gate was placed at the foot of the peak to include ~0.5% gated population.
(§1) Histogram statistical analysis was performed using FACSDiva version 8.0.1 (BD Biosciences). Relative fluorescence unit (RFU), which measures the level of pSTAT, was calculated by multiplying the percent positive population and its mean fluorescence. Data from 11 compound concentrations (singlicate at each concentration) were normalized as a percentage of control, as shown in Equation 1:(1) %ofcontrol=100×A−B/C−B
(§2) A, RFU from wells containing compound and cytokine; B, RFU from wells without cytokine (minimum fluorescence); C, RFU from wells containing only cytokine (maximum fluorescence).
(§3) Inhibition curves and IC50 values were determined using Prism software (Version 7, GraphPad).

[2] = tested on: TPO cytokine receptor (JAK2/JAK2); assay: Human whole blood, TPO-induced pSTAT5, CD14+ cells; type: cell-based
Experimental: Blood was warmed to 37°C prior to use.
(§4) Then, 5 µL of PBS or cytokine was added to each well (5 µL/well; final, 10 U/mL EPO, 100 ng/mL G‐CSF, 10 ng/mL GM‐CSF, 5000 U/mL IFNα, 100 ng/mL IFNγ, 50 ng/mL IL‐2, 50 ng/mL IL‐3, 5 ng/mL IL‐4, 50 ng/mL IL‐6, 30 ng/mL IL‐7, 30 ng/mL IL‐10, 30 ng/mL IL‐12, 30 ng/mL IL‐13, 30 ng/mL IL‐15, 50 ng/mL IL‐21, 25 ng/mL IL‐23, 1000 ng/mL IL‐27) and incubated for 15 minutes. Anti‐cell surface antibodies were added 15 minutes prior to cytokine stimulation; anti‐CD14‐Pacific Blue (0.5 µL/well) to GM‐CSF, IFNγ, and TPO‐treated samples; anti‐CD3‐BV650 (0.5 µL/well) plus anti‐CD14‐Pacific Blue (0.5 µL/well) to IL‐6‐treated samples; and anti‐CD19‐BV421 (0.5 µL/well) plus anti‐CD14‐AF488 (0.5 µL/well) to IL‐13‐treated samples.
(§5) One more wash was done with staining buffer and all samples were finally suspended in 150 µL/well of the desired anti‐pSTAT antibodies at 1:150 dilution in staining buffer; anti‐pSTAT1‐AF647 in IFNγ‐treated samples; anti‐pSTAT1‐AF488 and anti‐pSTAT3‐AF647 in IFNα‐, IL‐6‐, and IL‐27‐treated samples; anti‐pSTAT3‐AF647 in G‐CSF‐, IL‐10‐, IL‐21‐, and IL‐23‐treated samples; anti‐pSTAT4‐AF647 in IL‐12‐treated samples; anti‐pSTAT5‐AF647 in EPO‐, GM‐CSF‐, IL‐2‐, IL‐3‐, IL‐7‐, IL‐15‐, and TPO‐treated samples; anti‐pSTAT5‐AF488 and anti‐pSTAT6‐AF647 in IL‐4‐treated samples; and anti‐pSTAT6‐AF647 in IL‐13‐treated samples.
(§6) The lymphocyte population was gated for pSTAT histogram analysis for IFNα‐, IL‐2‐, IL‐3‐, IL‐4‐, IL‐7‐, IL‐10‐, IL‐12‐, IL‐15‐, IL‐21‐, IL‐23‐, and IL‐27‐treated samples; granulocyte population for G‐CSF‐treated samples; CD14^+ cells for GM‐CSF‐, IFNγ‐, and TPO‐treated samples; CD3^+ cells and CD14^+ cells for IL‐6‐treated samples; CD14^+ cells and CD19^+ cells for IL‐13‐treated samples; all events (entire populations) for EPO‐treated cells. Background fluorescence was defined using unstimulated cells and a gate was placed at the foot of the peak to include ~0.5% gated population.
as §1, §2, §3

[3] = tested on: IL-27 cytokine receptor (JAK1/JAK2, JAK1/TYK2); assay: Human whole blood, IL-27-induced pSTAT3, lymphocytes; type: cell-based; settings: Lymphocyte
Experimental: Blood was warmed to 37°C prior to use.
as §4, §5, §6, §1, §2, §3

[4] = tested on: IL-4 cytokine receptor (JAK1/JAK3); assay: Human whole blood, IL-4-induced pSTAT6, lymphocytes; type: cell-based; settings: Lymphocyte
Experimental: Blood was warmed to 37°C prior to use.
as §4, §5, §6, §1, §2, §3

[5] = tested on: IL-12 cytokine receptor (JAK2/TYK2); assay: Human whole blood, IL-12-induced pSTAT4, lymphocytes; type: cell-based; settings: for IC50: Homo sapiens, Lymphocyte
Experimental: Blood was warmed to 37°C prior to use.
as §4, §5, §6, §1, §2, §3

[6] = tested on: IL-7 cytokine receptor (JAK1/JAK3); assay: Human whole blood, IL-7-induced pSTAT5, lymphocytes; type: cell-based; settings: Lymphocyte
Experimental: Blood was warmed to 37°C prior to use.
as §4, §5, §6, §1, §2, §3

[7] = tested on: IL-15 cytokine receptor (JAK1/JAK3); assay: Human whole blood, IL-15-induced pSTAT5, lymphocytes; type: cell-based; settings: for IC50: Homo sapiens, Lymphocyte
Experimental: Blood was warmed to 37°C prior to use.
as §4, §5, §6, §1, §2, §3

[8] = tested on: IL-6 cytokine receptor (JAK1/JAK2, JAK1/TYK2); assay: Human whole blood, IL-6-induced pSTAT1, CD3+ cells; type: cell-based; settings: for IC50: Homo sapiens
Experimental: Blood was warmed to 37°C prior to use.
as §4, §5, §6, §1, §2, §3

[9] = phase 3 RA studies; cited from earlier work
CRP = settings: RA; filgotinib 200 mg QD; cited from earlier work
[10] = tested on: IL-6 cytokine receptor (JAK1/JAK2, JAK1/TYK2); assay: Human whole blood, IL-6-induced pSTAT1, CD14+ cells; type: cell-based
Experimental: Blood was warmed to 37°C prior to use.
(§7) Anti‐cell surface antibodies were added 15 minutes prior to cytokine stimulation; anti‐CD14‐Pacific Blue (0.5 µL/well) to GM‐CSF, IFNγ, and TPO‐treated samples; anti‐CD3‐BV650 (0.5 µL/well) plus anti‐CD14‐Pacific Blue (0.5 µL/well) to IL‐6‐treated samples; and anti‐CD19‐BV421 (0.5 µL/well) plus anti‐CD14‐AF488 (0.5 µL/well) to IL‐13‐treated samples.
as §6, §1, §2, §3

[11] = tested on: IL-27 cytokine receptor (JAK1/JAK2, JAK1/TYK2); assay: Human whole blood, IL-27-induced pSTAT1, lymphocytes; type: cell-based; settings: Lymphocyte
Experimental: Blood was warmed to 37°C prior to use.
as §7, §6, §1, §2, §3

[12] = tested on: IL-10 cytokine receptor (JAK1/TYK2); assay: Human whole blood, IL-10-induced pSTAT3, lymphocytes; type: cell-based; settings: Lymphocyte
Experimental: Blood was warmed to 37°C prior to use.
as §4, §5, §6, §1, §2, §3

[13] = tested on: IL-21 cytokine receptor (JAK1/JAK3); assay: Human whole blood, IL-21-induced pSTAT3, lymphocytes; type: cell-based; settings: Lymphocyte
Experimental: Blood was warmed to 37°C prior to use.
as §4, §5, §6, §1, §2, §3

[14] = tested on: IFNα cytokine receptor (JAK1/TYK2); assay: Human whole blood, IFNα-induced pSTAT3, lymphocytes; type: cell-based; settings: Lymphocyte
Experimental: Blood was warmed to 37°C prior to use.
as §4, §5, §6, §1, §2, §3

[15] = tested on: IL-3 cytokine receptor (JAK2/JAK2); assay: Human whole blood, IL-3-induced pSTAT5, lymphocytes; type: cell-based
Experimental: Blood was warmed to 37°C prior to use.
as §4, §5, §6, §1, §2, §3

[16] = tested on: GM-CSF cytokine receptor (JAK2/JAK2); assay: Human whole blood, GM-CSF-induced pSTAT5, CD14+ cells; type: cell-based
Experimental: Blood was warmed to 37°C prior to use.
as §4, §5, §6, §1, §2, §3

[17] = human; filgotinib 200 mg QD; cited from earlier work
[18] = unbound, Cav × fu; filgotinib 200 mg QD
[19] = tested on: IL-2 cytokine receptor (JAK1/JAK3); assay: Human whole blood, IL-2-induced pSTAT5, lymphocytes; type: cell-based; settings: Lymphocyte
Experimental: Blood was warmed to 37°C prior to use.
as §4, §5, §6, §1, §2, §3

in vitro = settings: both, human, pooled human plasma
[20] = tested on: IL-13 cytokine receptor (JAK1/JAK2, JAK1/TYK2); assay: Human whole blood, IL-13-induced pSTAT6, CD14+ cells; type: cell-based
Experimental: Blood was warmed to 37°C prior to use.
as §7, §6, §1, §2, §3

[21] = tested on: IFNγ cytokine receptor (JAK1/JAK2); assay: Human whole blood, IFNγ-induced pSTAT1, CD14+ cells; type: cell-based; settings: for IC50: Homo sapiens
Experimental: Blood was warmed to 37°C prior to use.
as §4, §5, §6, §1, §2, §3

[22] = tested on: IFNα cytokine receptor (JAK1/TYK2); assay: Human whole blood, IFNα-induced pSTAT1, lymphocytes; type: cell-based; settings: for IC50: Homo sapiens, Lymphocyte
Experimental: Blood was warmed to 37°C prior to use.
as §4, §5, §6, §1, §2, §3

[23] = tested on: IL-6 cytokine receptor (JAK1/JAK2, JAK1/TYK2); assay: Human whole blood, IL-6-induced pSTAT3, CD3+ cells; type: cell-based
Experimental: Blood was warmed to 37°C prior to use.
as §7, §6, §1, §2, §3

[24] = tested on: IL-13 cytokine receptor (JAK1/JAK2, JAK1/TYK2); assay: Human whole blood, IL-13-induced pSTAT6, CD19+ cells; type: cell-based
Experimental: Blood was warmed to 37°C prior to use.
as §7, §6, §1, §2, §3

Q: With O=C(Nc1nc2cccc(-c3ccc(CN4CCS(=O)(=O)CC4)cc3)n2n1)C1CC1 [Filgotinib] as the compound, how does the IC50 ([1]; Figure S1F, Donor 573, Exp 1, one of four experiments, read-out: IC50, EPO induced pSTAT5, single experiment) read?
A: 7580 nM

Q: And the IC50 ([1]; four donors, mean (SD), erythroid progenitor cells, JAK2/JAK2, EPO 10 U/mL, read-out: IC50, EPO, pSTAT5)?
A: 9900 nM

Q: What about the IC50 ([1]; unbound (IC50/blood:plasma ratio × fu), erythroid progenitor cells, JAK2/JAK2, read-out: IC50,u, EPO, pSTAT5) of the same compound?
A: 3970 nM

Q: What about the “LogIC50, EPO induced pSTAT5, single experiment” value ([1]; Figure S1F, Donor 573, Exp 1) of the same compound?
A: -5.121 log[M]

Q: What about the IC50 ([2]; Homo sapiens, read-out: IC50, TPO, pSTAT5) of the same compound?
A: > 17600 nM

Q: And the “IC50, TPO, pSTAT5” value ([2]; human whole blood, four donors, mean (SD), CD14+ cells, JAK2/JAK2)?
A: not measurable

Q: What about the IC50 ([3]; read-out: IC50, IL-27, pSTAT3) of the same compound?
A: 1160 nM

Q: What about the IC50 ([3]; read-out: IC50,u, IL-27, pSTAT3) of the same compound?
A: 468 nM

Q: What about the IC50 ([4]; read-out: IC50, IL-4, pSTAT6) of the same compound?
A: 3620 nM

Q: What about the IC50 ([4]; read-out: IC50,u, IL-4, pSTAT6) of the same compound?
A: 1460 nM

Q: And the “LogIC50, IL-12 induced pSTAT4, single experiment” value [5]?
A: -5.125 log[M]

Q: And the IC50 ([5]; read-out: IC50, IL-12, pSTAT4)?
A: 8030 nM

Q: And the IC50 ([5]; read-out: IC50, IL-12 induced pSTAT4, single experiment)?
A: 7510 nM

Q: What about the IC50 ([5]; read-out: IC50,u, IL-12, pSTAT4) of the same compound?
A: 3220 nM

Q: What about the IC50 ([6]; read-out: IC50, IL-7, pSTAT5) of the same compound?
A: 3620 nM

Q: What about the IC50 ([6]; read-out: IC50,u, IL-7, pSTAT5) of the same compound?
A: 1460 nM

Q: What about the “LogIC50, IL-15 induced pSTAT5, single experiment” value [7] of the same compound?
A: -5.526 log[M]

Q: And the IC50 ([7]; read-out: IC50, IL-15, pSTAT5)?
A: 3380 nM

Q: What about the IC50 ([7]; read-out: IC50, IL-15 induced pSTAT5, single experiment) of the same compound?
A: 2980 nM

Q: What about the IC50 ([7]; read-out: IC50,u, IL-15, pSTAT5) of the same compound?
A: 1360 nM

Q: And the “LogIC50, IL-6 induced pSTAT1 (CD3+ cells), single experiment” value [8]?
A: -6.12 log[M]

Q: And the IC50 ([8]; read-out: IC50, IL-6, pSTAT1, CD3+ cells)?
A: 671 nM

Q: What about the IC50 ([8]; read-out: IC50, IL-6 induced pSTAT1 (CD3+ cells), single experiment) of the same compound?
A: 759 nM

Q: What about the IC50 ([8]; read-out: IC50,u, IL-6, pSTAT1, CD3+ cells) of the same compound?
A: 270 nM

Q: What about the herpes zoster occurrence [9] of the same compound?
A: reported

Q: And the “reduction of CRP levels from baseline to week 12” value (CRP)?
A: -14.9 mg/L

Q: And the IC50 ([10]; read-out: IC50, IL-6, pSTAT1, CD14+ cells)?
A: 810 nM

Q: And the IC50 ([10]; read-out: IC50,u, IL-6, pSTAT1, CD14+ cells)?
A: 325 nM

Q: What about the IC50 ([11]; read-out: IC50, IL-27, pSTAT1) of the same compound?
A: 2110 nM

Q: What about the IC50 ([11]; read-out: IC50,u, IL-27, pSTAT1) of the same compound?
A: 848 nM

Q: And the IC50 ([12]; read-out: IC50, IL-10, pSTAT3)?
A: 2550 nM

Q: What about the IC50 ([12]; read-out: IC50,u, IL-10, pSTAT3) of the same compound?
A: 1020 nM

Q: What about the IC50 ([13]; read-out: IC50, IL-21, pSTAT3) of the same compound?
A: 3980 nM

Q: What about the IC50 ([13]; read-out: IC50,u, IL-21, pSTAT3) of the same compound?
A: 1600 nM

Q: And the IC50 ([14]; read-out: IC50, IFNα, pSTAT3)?
A: 1060 nM

Q: And the IC50 ([14]; read-out: IC50,u, IFNα, pSTAT3)?
A: 425 nM

Q: And the IC50 ([15]; Homo sapiens, Lymphocyte, read-out: IC50, IL-3, pSTAT5)?
A: > 20000 nM

Q: And the “IC50, IL-3, pSTAT5” value ([15]; human whole blood, four donors, mean (SD), lymphocytes, JAK2/JAK2, IL-3 50 ng/mL)?
A: not measurable

Q: What about the IC50 ([16]; Homo sapiens, read-out: IC50, GM-CSF, pSTAT5) of the same compound?
A: > 20000 nM

Q: And the “IC50, GM-CSF, pSTAT5” value ([16]; human whole blood, four donors, mean (SD), CD14+ cells, JAK2/JAK2, GM-CSF 10 ng/mL)?
A: not measurable

Q: What about the Cav [17] of the same compound?
A: 474 nM

Q: And the “Cav,u” value [18]?
A: 232.0 nM

Q: And the IC50 ([19]; read-out: IC50, IL-2, pSTAT5)?
A: 2660 nM

Q: And the IC50 ([19]; read-out: IC50,u, IL-2, pSTAT5)?
A: 1070 nM

Q: What about the fraction unbound at 6 h, 1 μmol/L (in vitro) of the same compound?
A: 0.49

Q: What about the IC50 ([20]; read-out: IC50, IL-13, pSTAT6, CD14+ cells) of the same compound?
A: 5140 nM

Q: What about the IC50 ([20]; read-out: IC50,u, IL-13, pSTAT6, CD14+ cells) of the same compound?
A: 2060 nM

Q: What about the “LogIC50, IFNγ induced pSTAT1, single experiment” value [21] of the same compound?
A: -5.17 log[M]

Q: And the IC50 ([21]; read-out: IC50, IFNγ induced pSTAT1, single experiment)?
A: 6760 nM

Q: What about the IC50 ([21]; read-out: IC50, IFNγ, pSTAT1) of the same compound?
A: 6950 nM

Q: What about the IC50 ([21]; read-out: IC50,u, IFNγ, pSTAT1) of the same compound?
A: 2790 nM

Q: And the “LogIC50, IFNα induced pSTAT1, single experiment” value ([22]; Figure S1B, Donor 256, Exp 1)?
A: -5.931 log[M]

Q: What about the IC50 ([22]; read-out: IC50, IFNα induced pSTAT1, single experiment) of the same compound?
A: 1170 nM

Q: What about the IC50 ([22]; read-out: IC50, IFNα, pSTAT1) of the same compound?
A: 1320 nM

Q: And the IC50 ([22]; read-out: IC50,u, IFNα, pSTAT1)?
A: 531 nM

Q: And the IC50 ([23]; read-out: IC50, IL-6, pSTAT3, CD3+ cells)?
A: 4940 nM

Q: What about the IC50 ([23]; read-out: IC50,u, IL-6, pSTAT3, CD3+ cells) of the same compound?
A: 1980 nM

Q: What about the IC50 ([24]; read-out: IC50, IL-13, pSTAT6, CD19+ cells) of the same compound?
A: 2120 nM

Q: And the IC50 ([24]; read-out: IC50,u, IL-13, pSTAT6, CD19+ cells)?
A: 853 nM
